How the values were obtained:
[1] = system: glucose transporter 4 (GLUT4); test: translocation of glucose transporter 4 (GLUT4) to the cell membrane in L6 myotubes; format: cell-based; conditions: 10 μM, 2 hours
Protocol: Effects of isolated compounds on the translocation of glucose transporter 4 (GLUT4) from cytosol to the cell membrane (FIG. 2)
After L6 cells were differentiated to myotube completely, they were treated for 2 hours with various test compounds, namely trihydroxycucurbita-5,23(E)-dien-19-al, 22(S),23(R),24(R),25-tetrahydroxycucurbita-5-ene, momordicoside A, momordicoside B (final concentration 10 μM, each) or 100 nM insulin (as positive control). The data were expressed as mean±standard error (X±SE) (n=3-4). The significance was shown as ***p<0.001 compared with solvent control groups.

[2] = system: adenosine monophosphate-activated protein kinase (AMPK); test: AMPK activation (pACC, pAMPK) in 3T3-L1 adipose cells; format: cell-based; conditions: for activation of the AMPK signaling pathway (pACC, pAMPK): 10 μM, 60 minutes
Protocol: Testing the activities of trihydroxycucurbita-5,23(E)-diene-19-aldehyde and 22(S), 23(R),24(R),25-tetrahydroxy cucurbita-5-ene on adenosine monophosphate-activated protein kinase (AMPK) (FIG. 3)
3T3-L1 adipose cells was incubated for 60 minutes in a medium containing 10 μM compounds, or in a medium containing 2 mM 5-amino4-imidazolecarboxamide nucleotide (AIC, positive control) or DMSO as a solvent control, followed by being treated with 100 nM insulin for 2 minutes or 25 minutes. Then the proteins pACC and pAMPK in cell lysate were determined with corresponding antibodies. The total amount of protein 14-3-3 was used as the quality control for sample loading.
(§1) According the processes in experimental examples 2 and 3, 22(S),23(R),24(R),25-tetrahydroxycucurbita-5-ene was tested at different concentrations (10^−10, 10^−7, 10^−6, 10^−5 M).

[3] = system: glucose transporter 4 (GLUT4); test: GLUT4 translocation in 3T3-L1 adipose cells; format: cell-based
Protocol: Dose-dependent effect of 22(S),23(R),24(R),25-tetrahydroxycucurbita-5-ene on GLUT4 translocation and the phosphorylation of AMPK in 3T3-L1 adipose cells (FIG. 4)
as §1
A. 10 μM 22(S),23(R),24(R),25-tetrahydroxycucurbita-5-ene or 100 nM insulin (positive control) was added in the differentiated 3T3-L1 adipose cells using DMSO (final concentration of DMSO: 0.2%) as a solvent with or without wortmanin (an inhibitor of monophosphoinositide 3-kinase), and the activity on GLUT4 translocation was determined as described in experimental example 2. The data were expressed in mean±standard error (X±SE). The significances were shown as *p<0.05 and **p<0.01 compared with the solvent control groups.

protein kinase B (Akt) [4] = test: phosphorylation of protein kinase B [Akt (S473)] in 3T3-L1 adipose cells; format: cell-based; conditions: 10 μM, 30 minutes
Protocol: (§2) B. 3T3-L1 adipose cells and L6 muscle cells were incubated for 30 minutes in a medium containing 10 μM trihydroxycucurbita-5,23(E)-dien-19-al or 22(S),23(R),24(R),25-tetrahydroxycucurbita-5-ene, or a medium containing 100 nM insulin (positive control) or DMSO as a solvent control. The phosphorylation of protein kinase B [Akt (S473)] and the total protein kinase B (14-3-3) were determined with corresponding antibodies. The significances are shown as *p<0.05 and **p<0.01 compared with the solvent control groups.

protein kinase B (Akt) [5] = test: phosphorylation of protein kinase B [Akt (S473)] in L6 muscle cells; format: cell-based; conditions: 10 μM, 30 minutes
Protocol: as §2

[6] = system: alloxan-induced diabetic mice; conditions: 400 mg/kg, effect reported was very mild; cited from earlier work
L6 muscle cells = test: glucose uptake in L6 muscle cells (2-[3H]-deoxy-D-glucose); format: cell-based; conditions: 10 μM, 2 hours, p<0.05 vs control
Protocol: Testing the effect of momordicoside A on the glucose uptake in L6 muscle cells (FIG. 1)
After L6 cells were differentiated to myotube completely, they were incubated in serum-free DMEM containing 0.5% BSA for 16 hours. […] After that, they were washed with 1×PBS preheated at 37° C. twice, and 0.5% BSA Krebs buffer (NaCl 140 mM, KCl 5 mM, MgSO4 2.5 mM, CaCl2 1 mM, HEPES 20 mM, pH7.4) without or with insulin (final concentration 100 nM), followed by incubation at 37° C. for 40 minutes. A 2-[1,2-3H(N)]-deoxy-D-glucose solution (final concentration 0.5 μCi/ml) was added therein and incubated for 10 minutes at 37° C. Then the reaction was terminated by washing three times with ice-cold 1×PBS and 0.15 ml of 0.1% Triton was added therein for the lysis of the cells the counting in a liquid-scintillation counter. After the CPM value was corrected with the protein amount, the glucose uptake amount of L6 cells was calculated.
The data are shown in mean±standard error (X±SE) (n=3). The significance was shown as *p<0.05 compared with control groups under corresponding conditions.

[7] = tested at 10^−10, 10^−7, 10^−6, 10^−5 M

## C[C@H]([C@H](O)[C@@H](O)[C@@H](O)C(C)(C)O)[C@H]1CC[C@@]2(C)C3CC=C4C(CC[C@H](O)C4(C)C)[C@]3(C)CC[C@]12C (stereo partly drawn) [22(S),23(R),24(R),25-tetrahydroxycucurbita-5-ene]
[1]
  translocation of glucose transporter 4 (GLUT4) to the cell membrane: capable of promoting the translocation
[2]
  activation of the AMPK signaling pathway (pACC, pAMPK): capable of activating the AMPK signaling pathway significantly
[2]; [7]
  concentration at which the maximal effect on phosphorylation of AMPK was reached: 10^−6 M
[3]; 10 μM, with or without wortmanin
  effect of wortmanin (PI3-kinase inhibitor) on the compound's activity on GLUT4 translocation: did not affect the activity
[3]; [7]
  concentration at which the maximal effect on GLUT4 translocation was reached: 10^−6 M
Protein kinase B (Akt) [4]
  phosphorylation of protein kinase B [Akt (S473)]: not able to increase the phosphorylation of protein kinase B
Protein kinase B (Akt) [5]
  phosphorylation of protein kinase B [Akt (S473)]: not able to increase the phosphorylation of protein kinase B

## CC(CC=CC(C)(C)O)C1CCC2(C)C3C=CC45OCC3(CCC12C)C4CCC(O)C5(C)C (stereo not drawn) [5β, 19-epoxy-3β,25-dihydroxycucurbita-6,23(E)-diene]
[6]
  hypoglycemic effect: showed hypoglycemic effect

## C[C@H](C/C=C/C(C)(C)O)[C@H]1CC[C@@]2(C)C3[C@@H](O)C=C4C(CC[C@H](O)C4(C)C)[C@]3(C=O)CC[C@]12C (stereo partly drawn) [trihydroxycucurbita-5,23(E)-dien-19-al]
[1]
  translocation of glucose transporter 4 (GLUT4) to the cell membrane: capable of promoting the translocation
[2]
  activation of the AMPK signaling pathway (pACC, pAMPK): capable of activating the AMPK signaling pathway significantly
Protein kinase B (Akt) [4]
  phosphorylation of protein kinase B [Akt (S473)]: not able to increase the phosphorylation of protein kinase B
Protein kinase B (Akt) [5]
  phosphorylation of protein kinase B [Akt (S473)]: not able to increase the phosphorylation of protein kinase B
[6]
  hypoglycemic effect: showed hypoglycemic effect

## momordicoside A
L6 muscle cells; 100 nM insulin
  glucose uptake in L6 cells under the stimulus of insulin: increased significantly
L6 muscle cells; without insulin
  glucose uptake in L6 cells at base level: increased significantly

From US8722634B2, “Use of compounds extracted from Momordica charantia L. in the manufacture of medicaments for prevention and treatment of diabetes and obesity” (Shanghai Institute of Materia Medica, Chinese Academy of …, priority 2008, dated 2014)
